We go through two molecules from PMC7192455, “Exploring novel bacterial terpene synthases” (PLoS ONE, 2020).

Common to all, as to assay: product identification by GC-QToF
Holding throughout (type): biochemical

In assay [1] the target is T1, ScEpiS (CAN96536.1), 10-epi-cubebol synthase (Sorangium cellulosum, UniProt A9GK58).
T1 construct: gene sce6369; codon-optimised, pETM11, N-terminal His-tag (TEV cleavable), E. coli, Ni-NTA purified
T1 sequence (A9GK58 1-315): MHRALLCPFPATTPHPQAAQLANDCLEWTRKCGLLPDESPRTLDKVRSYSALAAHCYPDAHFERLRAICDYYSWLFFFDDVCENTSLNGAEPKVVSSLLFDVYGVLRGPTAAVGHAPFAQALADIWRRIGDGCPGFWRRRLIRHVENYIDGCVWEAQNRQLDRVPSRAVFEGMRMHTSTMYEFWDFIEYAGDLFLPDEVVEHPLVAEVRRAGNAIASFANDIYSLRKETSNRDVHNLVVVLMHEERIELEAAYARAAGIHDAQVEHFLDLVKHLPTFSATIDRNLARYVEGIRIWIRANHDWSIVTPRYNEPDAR
The following applies: 5 mM MgCl2, 25 mM Tris-HCl pH 7.8, 28 C overnight.

For assay [2], the target named is T2, ScGeoS, geosmin synthase (CAB41566.1) (Streptomyces coelicolor, UniProt Q9X839).
T2 construct: gene cyc2; bi-domain enzyme, recombinant, purified; pETM11 N-terminal His-tag
The conditions noted are these: 75 uM FPP, 5 mM MgCl2, 25 mM Tris-HCl pH 7.8, 28 C overnight; products geosmin, germacradienol, germacrene D; positive control.

The target in assay [3] is T3, ScAroS (KYF56472.1), aromandendrene synthase (Sorangium cellulosum, UniProt Z9C2K8JLD0).
T3 construct: codon-optimised, pETM11, N-terminal His-tag (TEV cleavable), E. coli, Ni-NTA purified
T3 sequence (Z9C2K8JLD0 1-329): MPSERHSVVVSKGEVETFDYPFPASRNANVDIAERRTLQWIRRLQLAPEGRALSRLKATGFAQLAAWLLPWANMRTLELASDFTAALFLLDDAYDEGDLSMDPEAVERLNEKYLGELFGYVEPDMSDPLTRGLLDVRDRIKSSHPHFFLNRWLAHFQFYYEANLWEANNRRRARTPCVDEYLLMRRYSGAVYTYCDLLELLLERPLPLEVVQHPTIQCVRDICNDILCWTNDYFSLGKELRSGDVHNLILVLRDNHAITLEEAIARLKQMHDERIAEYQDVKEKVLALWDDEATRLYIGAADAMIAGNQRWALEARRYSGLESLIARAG
The following applies: 75 uM FPP, 5 mM MgCl2, 25 mM Tris-HCl pH 7.8, 28 C overnight; product aromadendrene.

Assay [4] concerns the target T4, RrNerS (AHY47823.1), linalool/nerolidol synthase (Rubrobacter radiotolerans, UniProt A0A023X648).
T4 construct: gene RradSPS_2540; codon-optimised, pETM11, N-terminal His-tag (TEV cleavable), E. coli, Ni-NTA purified
T4 sequence (A0A023X648 1-315): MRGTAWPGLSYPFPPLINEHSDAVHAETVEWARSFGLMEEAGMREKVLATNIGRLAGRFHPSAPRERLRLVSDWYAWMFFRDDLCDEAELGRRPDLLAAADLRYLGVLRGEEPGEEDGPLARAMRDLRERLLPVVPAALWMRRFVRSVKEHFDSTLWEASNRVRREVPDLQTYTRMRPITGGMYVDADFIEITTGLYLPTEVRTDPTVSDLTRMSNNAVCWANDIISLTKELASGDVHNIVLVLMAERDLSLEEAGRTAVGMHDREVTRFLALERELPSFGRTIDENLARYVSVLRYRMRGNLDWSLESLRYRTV
The following applies: 5 mM MgCl2, 25 mM Tris-HCl pH 7.8, 28 C overnight.

In assay [5] the target is T5, RrBerS (AHY45426.1) (Rubrobacter radiotolerans, UniProt A0A023WZP4).
T5 construct: gene RradSPS_0143; codon-optimised, pETM11, N-terminal His-tag (TEV cleavable), E. coli, Ni-NTA purified
T5 sequence (A0A023WZP4 1-348): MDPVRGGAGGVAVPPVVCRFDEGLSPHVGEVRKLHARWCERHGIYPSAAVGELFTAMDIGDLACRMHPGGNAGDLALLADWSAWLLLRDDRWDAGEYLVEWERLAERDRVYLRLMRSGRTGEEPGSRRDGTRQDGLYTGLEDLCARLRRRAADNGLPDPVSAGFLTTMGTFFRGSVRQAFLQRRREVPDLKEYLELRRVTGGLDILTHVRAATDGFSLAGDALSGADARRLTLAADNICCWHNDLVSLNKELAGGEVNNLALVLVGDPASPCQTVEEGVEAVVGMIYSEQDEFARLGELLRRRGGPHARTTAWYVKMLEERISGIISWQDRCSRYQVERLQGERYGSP
The conditions noted are these: 5 mM MgCl2, 25 mM Tris-HCl pH 7.8, 28 C overnight.

Assay [6] has as its target T6, MiGerS (ADU09376.1), germacatriene synthase (Micromonospora aurantiaca (nom. illeg.), UniProt A0ABQ6UH67).
T6 construct: gene F6X54_13130; codon-optimised, pETM11, N-terminal His-tag (TEV cleavable), E. coli, Ni-NTA purified
The following applies: 75 uM FPP, 5 mM MgCl2, 25 mM Tris-HCl pH 7.8, 28 C overnight; products germacrene A (seen as beta-elemene) and 1(10),4,11-germacratriene.

The target of assay [7] is T7, KaGerS (AHH94051.1) (Kutzneria viridogrisea, UniProt W5W0G4).
T7 construct: gene KALB_676; codon-optimised, pETM11, N-terminal His-tag (TEV cleavable), E. coli, Ni-NTA purified
The following applies: 75 uM FPP, 5 mM MgCl2, 25 mM Tris-HCl pH 7.8, 28 C overnight; products germacradienol and germacrene D. The text has this:
product identification by GC-QToF on KaGerS (AHH94051.1) | we tested its functionality with FPP in in vitro conditions. This yielded germacradienol and germacrene D

SMILES strings stand for the structures.

T7 sequence (W5W0G4 1-363): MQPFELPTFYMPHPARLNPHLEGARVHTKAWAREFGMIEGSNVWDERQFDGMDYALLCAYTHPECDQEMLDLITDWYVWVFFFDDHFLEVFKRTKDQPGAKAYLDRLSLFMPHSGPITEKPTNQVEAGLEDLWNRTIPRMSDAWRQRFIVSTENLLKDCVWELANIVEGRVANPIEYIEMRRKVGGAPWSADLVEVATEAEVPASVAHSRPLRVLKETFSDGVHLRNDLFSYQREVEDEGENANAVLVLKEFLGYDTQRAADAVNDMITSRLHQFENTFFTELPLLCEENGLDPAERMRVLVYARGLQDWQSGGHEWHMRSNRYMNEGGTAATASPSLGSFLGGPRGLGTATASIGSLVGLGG
T6 sequence (A0ABQ6UH67 entry or part of it): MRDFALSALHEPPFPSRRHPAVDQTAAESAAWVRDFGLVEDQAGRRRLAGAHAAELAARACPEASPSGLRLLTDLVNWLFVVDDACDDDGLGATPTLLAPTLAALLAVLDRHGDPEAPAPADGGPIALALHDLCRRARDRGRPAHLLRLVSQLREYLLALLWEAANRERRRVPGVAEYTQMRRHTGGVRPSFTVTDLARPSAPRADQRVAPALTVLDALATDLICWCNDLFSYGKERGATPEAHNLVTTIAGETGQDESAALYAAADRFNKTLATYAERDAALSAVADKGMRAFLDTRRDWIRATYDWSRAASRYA
T2 sequence (Q9X839 whole entry): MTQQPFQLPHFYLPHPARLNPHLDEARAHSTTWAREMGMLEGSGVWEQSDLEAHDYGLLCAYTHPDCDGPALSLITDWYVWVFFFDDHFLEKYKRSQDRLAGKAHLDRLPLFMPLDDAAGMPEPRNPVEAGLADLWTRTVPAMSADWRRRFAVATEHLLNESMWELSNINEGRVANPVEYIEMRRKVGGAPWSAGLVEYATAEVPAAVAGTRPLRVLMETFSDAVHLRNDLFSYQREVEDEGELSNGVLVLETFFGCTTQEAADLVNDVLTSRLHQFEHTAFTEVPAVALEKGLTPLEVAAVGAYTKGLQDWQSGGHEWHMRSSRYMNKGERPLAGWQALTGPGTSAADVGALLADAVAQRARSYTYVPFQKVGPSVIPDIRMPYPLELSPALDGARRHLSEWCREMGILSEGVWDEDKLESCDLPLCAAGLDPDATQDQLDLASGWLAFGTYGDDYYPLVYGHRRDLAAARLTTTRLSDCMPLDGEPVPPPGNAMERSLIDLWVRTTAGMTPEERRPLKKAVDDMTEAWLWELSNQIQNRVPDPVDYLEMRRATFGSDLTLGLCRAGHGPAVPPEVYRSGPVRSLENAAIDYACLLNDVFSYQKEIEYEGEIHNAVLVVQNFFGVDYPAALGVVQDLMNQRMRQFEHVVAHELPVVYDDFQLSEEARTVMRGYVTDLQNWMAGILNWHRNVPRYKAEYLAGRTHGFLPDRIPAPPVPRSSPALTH

In the case of `CC(C)=CCC/C(C)=C/CC/C(C)=C/COP(=O)(O)OP(=O)(O)O` [FPP], the “product identification by GC-QToF” value in assay [1] (75 uM FPP, products 10-epi-cubebol and others) was “When ScEpiS was incubated with FPP the products obtained were 10-epi-α-cubinene”; in assay [2], “purified geosmin synthase yielded the sesquiterpenoids geosmin, germacradienol and germacrene D”; in assay [3] it was “converted FPP into only aromadendrene in in vitro analysis”; in assay [4] (75 uM FPP, product trans-nerolidol) it was “with FPP yielded a single product that was identified as trans-nerolidol by GC–QToF analysis”; in assay [5] (75 uM FPP, product alpha-bergamotene) it was “also showed activity with both FPP and GPP, yielding α-bergamotene”; in assay [6], “incubated with FPP yielded β-elemene, and 8-isopropenyl-1,5-dimethyl-1,5-cyclodecadiene”. The “product identification by GC-QToF” value in assay [7] is “we tested its functionality with FPP in in vitro conditions. This yielded germacradienol and germacrene D”.
Turning to `CC(C)=CCC/C(C)=C/COP(=O)(O)OP(=O)(O)O` [GPP], the “product identification by GC-QToF” value in assay [1] (100 uM GPP, products cis/trans-beta-ocimene and linalool) was “with GPP yielded the monoterpene products cis- and trans-β-ocimene”; in assay [4] (100 uM GPP, products R- and S-linalool), “Incubation with GPP yielded both R- and S- linalool isomers”; in assay [5] (100 uM GPP, product linalool) it was “also showed activity with both FPP and GPP, yielding α-bergamotene”.
